Results taken from US20220204575A1, “MODULATING SURVIVAL OF THERAPEUTIC CELLS AND METHODS, CELLS AND NUCLEIC ACIDS RELATED THERETO” (The Regents of the University of California, priority 2019, published 2022).

Key:
Assay type in all cases: cell-based
engineered T cells = assay: Inducible tBID circuit with varied levels of constitutive BCL-2 expression, T cell survival; settings: constant antigen-induced tBID expression, varied constitutive BCL-2
From the text: The ability of anti-apoptotic BCL-2 to buffer a pro-apoptotic protein was further tested in an inducible tBID circuit (described in more detail below) with varied levels of constitutive BCL-2 expression (schematically depicted in FIG. 5). In this experiment, constant levels of tBID expression were induced by the presence of antigen expressing target cells, BCL-2 expression levels were varied, and the amount of T cell survival at different levels of BCL-2 expression was quantitated (FIG. 6).

primary human T cells = assay: Constitutive overexpression of pro-apoptotic BCL-2 family proteins in T cells, FACS at culture day 12
Experimental: The abilities of several pro-apoptotic proteins (e.g., BIM, truncated Bid (tBID), and BAD) to induce T cell apoptosis when synthetically overexpressed from a constitutive promoter were tested. The tested T cells were also engineered to constitutively overexpress anti-apoptotic BCL-2.
Without being bound by theory, these effects were likely due to leaky expression of BIM, the high effectiveness of BIM in inducing apoptosis, or a combination thereof.

[1] = tested on: human primary CD4 T cells; assay: Anti-Her2 synNotch driving pro-apoptotic BCL-2 family protein X, T cell survival with antigen-expressing target cells; settings: in the presence of antigen-expressing target cells
Experimental: For example, a circuit was designed, as schematically depicted in FIG. 27, with an anti-Her2 synNotch driving expression of a pro-apoptotic BCL-2 family protein “X”, where X stands for the various pro-apoptotic BCL-2 family members were tested in the depicted circuit. As shown, upon the anti-Her2 scFv portion of the synNotch receptor binding Her2 expressed by a target cell, the transcription factor (TF) portion of the synNotch, containing Gal4-VP64, is released and inducing expression of the pro-apoptotic BCL-2 family protein “X”. The level of induced apoptosis in the presence of cells expressing the target antigen, as compared to control cells not expressing the target antigen, was then assessed.
Results of testing BID, tBID, PUMA, BMF, HRK and BIK as pro-apoptotic BCL-2 family protein “X” in this system are shown in FIG. 28, along with a negative control employing BFP in place of the pro-apoptotic BCL-2 family protein “X”.
Thus, the therapeutic cells encoding the BID circuit were able to survive BID induction.

T cells = assay: Basal T cell death from inducible response element constructs in the absence of synNotch antigen
From the text: Differences in the potency of various BCL-2 family members in inducible systems for therapeutic cell population control were also investigated and differences in potency were observed. For example, molecular circuits were designed and tested that included a response element construct including a UAS, inducible by the released transcription factor (TF) domain of a synNotch receptor, driving expression of various different BCL-2 family members (e.g., BIM, tBID, etc.) and a constitutive reporter (mCherry) (see schematic depiction provided in FIG. 19). Upon binding its target antigen, the synNotch receptor releases the TF domain which activates the UAS thereby driving expression of the respective BCL-2 family protein and the mCherry reporter is used to observe the size of the cell population thereafter.

## BCL-2: anti-apoptotic BCL-2 protein, human UniProt P10415, SEQ ID NO: 105
Engineered T cells
  T cell survival at different levels of BCL-2 expression: titratably buffers against apoptosis
Engineered T cells; listed as BCL2
  T cell survival at different levels of BCL-2 expression: less tBID-induced apoptosis
Primary human T cells; constitutive co-expression of BCL-2
  buffering against apoptotic effects of tBID and BIM: at least partially buffer against the apoptotic effects

## BMF: pro-apoptotic BMF protein, human UniProt Q96LC9
[1]
  induced apoptosis of T cells: induce apoptosis of human primary CD4 T cells

## BIM: pro-apoptotic BCL-2 family protein, human BIM UniProt O43521, SEQ ID NO: 99
Primary human T cells; constitutive expression, with constitutive overexpression of BCL-2, culture day 12
  ability to induce T cell apoptosis / drive T cell death: drove significant apoptosis
T cells; absence of synNotch target antigen, mCherry reporter
  basal T cell death from leaky expression: sufficient to cause widespread T cell death
T cells; uninduced, in the absence of co-expression with anti-apoptotic BCL-2
  cell death from uninduced inducible construct: leads to significant levels of cell death

## HRK: pro-apoptotic HRK protein, human UniProt O00198, SEQ ID NO: 103
[1]
  induced apoptosis of T cells: induce apoptosis of human primary CD4 T cells
